How the values were obtained:
[1] = tested on: Life-extended endometriotic (IE) cells; assay: Crystal violet growth/survival of life-extended endometriotic (IE) cells treated with chloroquine; assay type: cell-based, human; conditions: 25 μM chloroquine, up to about 96 hours, crystal violet absorbance
Method: Life-extended endometriotic (IE) cells were treated with 25 μM chloroquine for up to about 96 hours. Cells were then stained with crystal violet and measured for overall growth at an absorbance of […], using a Bioteck plate reader.

[2] = tested on: LC3-II; assay: LC3-II levels in IE cells after chloroquine; assay type: cell-based, human; conditions: chloroquine treatment

`CCN(CC)CCCC(C)Nc1ccnc2cc(Cl)ccc12` (centres unmarked) [chloroquine] was tested, and the cellular survival [1] was “dramatically inhibited” and the LC3-II levels [2] was “marked increase”.
